Measured values from ChEMBL document CHEMBL1143516, “Mercaptoamide-based non-hydroxamic acid type histone deacetylase inhibitors” (Bioorg Med Chem Lett, 2005).

biological target: Histone deacetylase; assay: In vitro inhibitory concentration against Histone deacetylase; Control value 0.06 uM; assay type: protein assay, Homo sapiens

SMILES	IC50 [nM]
O=C(CS)NCCCCC(=O)Nc1cnc2ccccc2c1	2800
O=C(CCCCCC[N-]CC[S-])Nc1ccccc1.[Zn+2]	> 100000
O=C(CS)NCCCCCC(=O)Nc1cnc2ccccc2c1	1100
O=C(CC(=O)Nc1ccccc1)NCCS	70000
O=C(NCCS)C(=O)Nc1ccccc1	2800
O=C(CS)NCCCC(=O)Nc1cnc2ccccc2c1	660
O=C(CS)NCCC(=O)Nc1cnc2ccccc2c1	39500
O=C(CCC(=O)Nc1ccccc1)NCCS	12500

Second part, the molecule after the results:

IC50 [nM]	SMILES
3100	O=C(CCCC(=O)Nc1ccccc1)NCCS
2500	O=C(CCCCCC(=O)Nc1ccccc1)NCCS
2350	O=C(CCCCCCC(=O)Nc1ccccc1)NCCS
10200	O=C(CCCCCCCC(=O)Nc1ccccc1)NCCS
1500	O=C(CCCCC(=O)Nc1ccccc1)NCCS
